Earlier results, collected in PubChem BioAssay AID1259409 (Chemical Carcinogenesis Research Information System (CCRIS), 2018).

Test system: rodent chemically induced tumor inhibition, incidence and multiplicity
Experiment: CCRIS tumor inhibitor studies
Details: Dose [Inhibitor]: 0, Promoter: NONE USED

Compound: S=C=NCCCCc1ccccc1
- tumour outcome (control, treated, inhibition, significance) (Carcinogen: 4-(METHYLNITROSAMINO)-1-(3-PYRIDYL)-1-BUTANONE, 64091-91-4, 0.2 UMOL 1/D FOR 4 D ADMINISTERED PRIOR TO CARCINOGEN TREATMENT (STUDY DURATION:116D), Route [Inhibitor]: GAVAGE, Species: MOUSE, Strain/Sex: STRAIN A, Target Tissue: Type of Lesion: LUNG: ADENOMA, Dose [Carcinogen]: 10 UMOL ONCE 2 HR AFTER FINAL DOSE OF INHIBITOR): 100%, 100%, 0%, not significant
- tumour outcome (control, treated, inhibition, significance) (Carcinogen: 4-(METHYLNITROSAMINO)-1-(3-PYRIDYL)-1-BUTANONE, 64091-91-4, 1 UMOL 1/D FOR 4 D ADMINISTERED PRIOR TO CARCINOGEN TREATMENT (STUDY DURATION:116 D), Route [Inhibitor]: GAVAGE, Species: MOUSE, Strain/Sex: STRAIN A, Target Tissue: Type of Lesion: LUNG: ADENOMA, Dose [Carcinogen]: 10 UMOL ONCE 2 HR AFTER FINAL DOSE OF INHIBITOR): 100%, 42%, 58%, p<0.05
- tumour outcome (control, treated, inhibition, significance) (Carcinogen: 4-(METHYLNITROSAMINO)-1-(3-PYRIDYL)-1-BUTANONE, 64091-91-4, 5 UMOL 1/D FOR 4 D ADMINISTERED PRIOR TO CARCINOGEN TREATMENT (STUDY DURATION: 116D), Route [Inhibitor]: GAVAGE, Species: MOUSE, Strain/Sex: STRAIN A, Target Tissue: Type of Lesion: LUNG: ADENOMA, Dose [Carcinogen]: 10 UMOL ONCE 2 HR AFTER FINAL DOSE OF INHIBITOR): 100%, 11%, 89%, p<0.05
- tumour outcome (control, treated, inhibition, significance) (Carcinogen: 4-(METHYLNITROSAMINO)-1-(3-PYRIDYL)-1-BUTANONE, 64091-91-4, 5 UMOL 1/D FOR 4 D ADMINISTERED PRIOR TO CARCINOGEN DOSE (STUDY DURATION: 116 D), Route [Inhibitor]: GAVAGE, Species: MOUSE, Strain/Sex: STRAIN-A, Target Tissue: Type of Lesion: LUNG: ADENOMA, Dose [Carcinogen]: 10 UMOL IN SALINE ADMINISTERED 2 HR POST LAST AGENT DOSE): 100%, 32%, 68%, p<0.001
- tumour outcome (control, treated, inhibition, significance) (Carcinogen: 4-(N-NITROSOMETHYLAMINO)-1-(3-PYRIDYL)-1-BUTANONE, 64091-91-4, 5 UMOL/D FOR 4 CONSECUTIVE DAYS (STUDY DURATION: 16.5 WK), Route [Inhibitor]: GAVAGE, Species: MOUSE, Strain/Sex: STRAIN-A/FEMALE, Target Tissue: Type of Lesion: LUNG: ADENOMA, Dose [Carcinogen]: 10 UMOL ONCE 2 HR POST LAST AGENT DOSE): 100%, 32%, 68%, not calculated
- tumour outcome (control, treated, inhibition, significance) (Carcinogen: N-NITROSOMETHYLBENZYLAMINE, 937-40-6, 0.4 UMOL/G IN DIET FOR 25 WK BEGINNING 2 WK PRIOR TO CARCINOGEN TREATMENT (STUDY DURATION: 25 WK), Route [Inhibitor]: ORAL, Species: RAT, Strain/Sex: F344/MALE, Target Tissue: Type of Lesion: ESOPHAGUS: TUMOR, Dose [Carcinogen]: 0.5 MG/KG BW IN 20% DMSO 1/WK FOR 15 WK): 100%, 93%, 7%, not significant
- tumour outcome (control, treated, inhibition, significance) (Carcinogen: N-NITROSOMETHYLBENZYLAMINE, 937-40-6, 1 UMOL/G IN DIET FOR 25 WK BEGINNING 2 WK PRIOR TO CARCINOGEN TREATMENT (STUDY DURATION: 25 WK), Route [Inhibitor]: ORAL, Species: RAT, Strain/Sex: F344/MALE, Target Tissue: Type of Lesion: ESOPHAGUS: TUMOR, Dose [Carcinogen]: 0.5 MG/KG BW IN 20% DMSO 1/WK FOR 15 WK): 100%, 93%, 7%, not significant
- tumour outcome (control, treated, inhibition, significance) (Carcinogen: N-NITROSOMETHYLBENZYLAMINE, 937-40-6, 2.5 UMOL/G IN DIET FOR 25 WK BEGINNING 2 WK PRIOR TO CARCINOGEN TREATMENT (STUDY DURATION: 25 WK), Route [Inhibitor]: ORAL, Species: RAT, Strain/Sex: F344/MALE, Target Tissue: Type of Lesion: ESOPHAGUS: TUMOR, Dose [Carcinogen]: 0.5 MG/KG BW IN 20% DMSO 1/WK FOR 15 WK): 100%, 100%, 0%, not significant
